This is an account of results in patent US20250312462A1, “PAK1 DEGRADERS AND METHODS OF USE THEREOF” (INSTITUTE FOR CANCER RESEARCH D/B/A THE RESEARCH INSTITUTE …, priority 2022, published 2025).

One data set relates to MCF7 cells. The experiment in a line: Cell proliferation, MTT assay. The format is cell-based. The following applies: Homo sapiens, MCF7, read-out: EC50, anti-proliferative, MCF7 cells. As to the method: (§1) Cell proliferation was assessed by MTT assay.
(§2) Cell viability was measured by MTT assay and the half maximal inhibitory concentration (IC50) was calculated using GraphPad Prism. Triplicates were performed for each sample and medium alone was used as a blank.
(§3) The anti-proliferative effects of PAK1 degradation and inhibition were evaluated.
For orientation: Tetrazolium assays rely on reduction of a dye to a coloured formazan, in cell work by metabolically active cells.

In the next data set the test system is Hey A8 cells. As to the kind of experiment: Cell proliferation, MTT assay. The format is cell-based. As to conditions: HEY A8, read-out: EC50, anti-proliferative. The protocol:
as §1, §2, §3

Another data set deals with OMM1 cells. The experiment in a line: Cell proliferation, MTT assay. It counts as cell-based. The following applies: OMM-1, read-out: EC50, anti-proliferative. As to the method:
as §1, §2, §3

The next data set deals with OVCAR3 cells. The experiment in a line: Cell proliferation, MTT assay. The format is cell-based. As to conditions: Homo sapiens, OVCAR-3, read-out: EC50, anti-proliferative, OVCAR3 cells. The protocol: […]. Cell proliferation was assessed by MTT assay. […].
Cells were plated at 2×10^3 cells per well in 96-well plates overnight and treated with various concentrations of Pak degraders for 72 hours. Cell viability was measured by MTT assay and the half maximal inhibitory concentration (IC50) was calculated using GraphPad Prism. Triplicates were performed for each sample and medium alone was used as a blank.
The anti-proliferative effects of PAK1 degradation and inhibition were evaluated. […]. […] […]. […] […].

In a further data set the target is PAK4 (Homo sapiens, UniProt O96013). As to the kind of experiment: Z'-LYTE FRET kinase inhibition assay. It counts as biochemical. Details: purchased Invitrogen. The text has this: […]. […] […].
Sequence of PAK4 (O96013 whole entry): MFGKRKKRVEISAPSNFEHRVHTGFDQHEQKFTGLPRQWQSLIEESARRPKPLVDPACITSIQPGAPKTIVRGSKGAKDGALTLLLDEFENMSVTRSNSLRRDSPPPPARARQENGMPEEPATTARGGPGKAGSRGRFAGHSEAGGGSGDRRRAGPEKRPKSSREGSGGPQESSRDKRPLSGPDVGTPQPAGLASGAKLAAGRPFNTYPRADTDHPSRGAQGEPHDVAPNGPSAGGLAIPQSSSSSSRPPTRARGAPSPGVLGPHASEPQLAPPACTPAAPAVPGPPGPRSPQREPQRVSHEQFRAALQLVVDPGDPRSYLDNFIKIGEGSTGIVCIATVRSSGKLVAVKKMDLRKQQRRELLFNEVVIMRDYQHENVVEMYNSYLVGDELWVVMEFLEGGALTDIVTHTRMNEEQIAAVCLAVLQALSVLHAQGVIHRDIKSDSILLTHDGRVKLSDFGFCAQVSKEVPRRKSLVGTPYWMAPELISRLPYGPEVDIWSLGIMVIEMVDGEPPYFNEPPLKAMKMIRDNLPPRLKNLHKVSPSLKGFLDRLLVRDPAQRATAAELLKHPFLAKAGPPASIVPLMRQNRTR
For data set [1] the following is noted: cited from earlier work.
For data set [2] the following is noted: cited from earlier work. This is another data set of the same source.

Read-outs that look alike come from different tables or passages of the source.

For `CC(C)NC(=O)N1CC[C@H](NC2=Nc3cc(F)ccc3N(CC(F)F)c3ccc(Cl)cc32)C1` [NVS-PAK1-1, reference compound], the concentration for a half-maximal effect (EC50) (usually the concentration giving half of the maximal effect) in the data set with MCF7 cells (first statement of b311) was 11.9 µM; in the data set with MCF7 cells (second listing of b311), 11.8 µM; in the data set on Hey A8 cells, 33.6 µM; in the data set with OMM1 cells, 12 µM; in the data set on OVCAR3 cells (first statement of b311), 3.68 µM; in the data set with OVCAR3 cells (second listing of b311) it was 8.9 µM. Further, the 50% inhibitory concentration (IC50) (commonly the concentration at which inhibition is half-maximal) against PAK4 is greater than 10 µM. Further, the “Half-life in rat liver microsomes” value in data set [1] is on record as “short half-life”. Also, the In vivo half-life entry in data set [2] was “short in vivo half-life”.
